Test results reported in patent US8952024B2, “Herbicidal pyrimidone derivatives” (E I du Pont de Nemours and Company, priority 2009, dated 2015).

Columns and labels:
Assay type in all cases: in vivo
Conditions in all cases: Postemergence
[1] = system: bermudagrass (Cynodon dactylon); assay: Test B pre-/postemergence plant response
How it was run: (§1)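 Plants treated either at seeding (loam/sand soil) or postemergence at 2 to 18 cm height, using a surfactant-containing non-phytotoxic solvent formulation. Evaluation was visual after 13 to 15 days, 0 to 100 scale relative to controls.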

[2] = system: velvetleaf (Abutilon theophrasti); assay: Test B pre-/postemergence plant response
How it was run: as §1

[3] = system: ragweed (common ragweed, Ambrosia elatior); assay: Test B pre-/postemergence plant response
How it was run: as §1

[4] = system: blackgrass (Alopecurus myosuroides); assay: Test B pre-/postemergence plant response
How it was run: as §1

[5] = system: large crabgrass (Digitaria sanguinalis); assay: Test B pre-/postemergence plant response
How it was run: as §1

[6] = system: lambsquarters (Chenopodium album); assay: Test B pre-/postemergence plant response
How it was run: as §1

soybean (Glycine max) = assay: Test B pre-/postemergence plant response
How it was run: as §1

[7] = system: Italian ryegrass (Lolium multiflorum); assay: Test B pre-/postemergence plant response
How it was run: as §1

corn (Zea mays) = assay: Test B pre-/postemergence plant response
How it was run: as §1

[8] = system: johnsongrass (Sorghum halepense); assay: Test B pre-/postemergence plant response
How it was run: as §1

[9] = system: yellow nutsedge (Cyperus esculentus); assay: Test B pre-/postemergence plant response
How it was run: as §1

[10] = system: Surinam grass (Brachiaria decumbens); assay: Test B pre-/postemergence plant response
How it was run: as §1

[11] = system: woolly cupgrass (Eriochloa villosa); assay: Test B pre-/postemergence plant response
How it was run: as §1

wild oat (Avena fatua) = assay: Test B pre-/postemergence plant response
How it was run: as §1

[12] = system: canarygrass (Phalaris minor); assay: Test B postemergence plant response
How it was run: (§2)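 Plants grown in peat/vermiculite medium were sprayed postemergence at 2–18 cm height (1- to 4-leaf stage). After 13–15 days in the greenhouse, response was rated visually against untreated controls on a 0–100 scale (0 no effect, 100 complete control).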

[13] = system: chickweed (Stellaria media); assay: Test B postemergence plant response
How it was run: as §2

[14] = system: winter barley (Hordeum vulgare); assay: Test B postemergence plant response
How it was run: as §2

[15] = system: windgrass (Apera spica-venti); assay: Test B postemergence plant response
How it was run: as §2

[16] = 31 g ai/ha, 0 to 100 scale (0 no effect, 100 complete control)
[17] = 125 g ai/ha, scale 0 to 100 (0 no effect, 100 complete control)
[18] = 62 g ai/ha, scale 0 to 100 (0 no effect, 100 complete control)
[19] = 250 g ai/ha, scale 0 to 100 (0 no effect, 100 complete control), 13 to 15 days
[20] = 125 g ai/ha, scale 0 (no effect) to 100 (complete control), 13 to 15 days

CCn1c(-c2cccc(F)c2)ncc(C(=O)C2=C(O)C3CCC(C3)C2=O)c1=O (stereo not drawn) [Compound 236]
95: Plant response rating, Bermudagrass [1, 16] | Plant response rating, Ragweed [3, 18] | Plant response rating, Cupgrass, Woolly [11, 17]
85: Plant response rating, Cupgrass, Woolly [11, 18] | Plant response rating, Windgrass [15, 19]
75: Plant response rating, Crabgrass, Large [5, 16] | Plant response rating, Chickweed [13, 16]
50: Plant response rating, Windgrass [15, 18]
15: Plant response rating, Corn (corn (Zea mays); [16]) | Plant response rating, Johnsongrass [8, 18] | Plant response rating, Nutsedge, Yellow [9, 17] | Plant response rating, Nutsedge, Yellow [9, 18]
65: Plant response rating, Nutsedge, Yellow [9, 19]
90: Plant response rating, Crabgrass, Large [5, 18] | Plant response rating, Soybean (soybean (Glycine max); [16])
10: Plant response rating, Canarygrass [12, 19]
60: Plant response rating, Corn (corn (Zea mays); [18]) | Plant response rating, Surinam Grass [10, 16] | Plant response rating, Oat, Wild (wild oat (Avena fatua); [19])
30: Plant response rating, Blackgrass [4, 17] | Plant response rating, Windgrass [15, 16]
80: Plant response rating, Ragweed [3, 16]
20: Plant response rating, Johnsongrass [8, 17]
70: Plant response rating, Corn (corn (Zea mays); [17]) | Plant response rating, Surinam Grass [10, 18] | Plant response rating, Cupgrass, Woolly [11, 16]
55: Plant response rating, Johnsongrass [8, 19]
98: Plant response rating, Bermudagrass [1, 17] | Plant response rating, Bermudagrass [1, 18] | Plant response rating, Velvetleaf [2, 16] | Plant response rating, Ragweed [3, 19] | Plant response rating, Crabgrass, Large [5, 17] | Plant response rating, Lambsquarters [6, 16] | Plant response rating, Soybean (soybean (Glycine max); [18])
100: Plant response rating, Velvetleaf [2, 19] | Plant response rating, Velvetleaf [2, 18] | Plant response rating, Crabgrass, Large [5, 19] | Plant response rating, Lambsquarters [6, 17] | Plant response rating, Lambsquarters [6, 19] | Plant response rating, Lambsquarters [6, 18] | Plant response rating, Soybean (soybean (Glycine max); [19]) | Plant response rating, Chickweed [13, 17] | Plant response rating, Chickweed [13, 19] | Plant response rating, Chickweed [13, 18]
0: Plant response rating, Blackgrass [4, 16] | Plant response rating, Ryegrass, Italian [7, 16] | Plant response rating, Ryegrass, Italian [7, 18] | Plant response rating, Johnsongrass [8, 16] | Plant response rating, Nutsedge, Yellow [9, 16] | Plant response rating, Oat, Wild (wild oat (Avena fatua); [16]) | Plant response rating, Oat, Wild (wild oat (Avena fatua); [18]) | Plant response rating, Canarygrass [12, 16] | Plant response rating, Canarygrass [12, 17] | Plant response rating, Canarygrass [12, 18] | Plant response rating, Barley [14, 16] | Plant response rating, Barley [14, 17] | Plant response rating, Barley [14, 19] | Plant response rating, Barley [14, 18]
5: Plant response rating, Blackgrass [4, 18] | Plant response rating, Ryegrass, Italian [7, 19]
40: Plant response rating, Blackgrass [4, 19]

CCCCn1c(-c2ccccc2)ncc(C(=O)C2=C(O)C3CCC(C3)C2=O)c1=O (stereo not drawn) [Compound 240]
50: Plant response rating, Blackgrass [4, 18]
95: Plant response rating, Soybean (soybean (Glycine max); [16]) | Plant response rating, Soybean (soybean (Glycine max); [20]) | Plant response rating, Soybean (soybean (Glycine max); [18]) | Plant response rating, Corn (corn (Zea mays); [18]) | Plant response rating, Surinam Grass [10, 16]
30: Plant response rating, Canarygrass [12, 20]
85: Plant response rating, Velvetleaf [2, 20] | Plant response rating, Velvetleaf [2, 18]
60: Plant response rating, Oat, Wild (wild oat (Avena fatua); [19]) | Plant response rating, Windgrass [15, 16]
45: Plant response rating, Nutsedge, Yellow [9, 19] | Plant response rating, Oat, Wild (wild oat (Avena fatua); [20])
20: Plant response rating, Nutsedge, Yellow [9, 20]
98: Plant response rating, Bermudagrass [1, 16] | Plant response rating, Ragweed [3, 16] | Plant response rating, Ragweed [3, 18] | Plant response rating, Crabgrass, Large [5, 18] | Plant response rating, Lambsquarters [6, 16] | Plant response rating, Surinam Grass [10, 18] | Plant response rating, Cupgrass, Woolly [11, 16] | Plant response rating, Chickweed [13, 18] | Plant response rating, Windgrass [15, 20] | Plant response rating, Windgrass [15, 19]
90: Plant response rating, Corn (corn (Zea mays); [16]) | Plant response rating, Chickweed [13, 16]
5: Plant response rating, Canarygrass [12, 16] | Plant response rating, Canarygrass [12, 18] | Plant response rating, Barley [14, 16] | Plant response rating, Barley [14, 18]
15: Plant response rating, Ryegrass, Italian [7, 18] | Plant response rating, Nutsedge, Yellow [9, 18] | Plant response rating, Barley [14, 20] | Plant response rating, Barley [14, 19]
75: Plant response rating, Velvetleaf [2, 16]
10: Plant response rating, Ryegrass, Italian [7, 16] | Plant response rating, Nutsedge, Yellow [9, 16]
40: Plant response rating, Blackgrass [4, 16] | Plant response rating, Ryegrass, Italian [7, 20] | Plant response rating, Ryegrass, Italian [7, 19] | Plant response rating, Oat, Wild (wild oat (Avena fatua); [18]) | Plant response rating, Canarygrass [12, 19]
100: Plant response rating, Bermudagrass [1, 20] | Plant response rating, Bermudagrass [1, 19] | Plant response rating, Bermudagrass [1, 18] | Plant response rating, Velvetleaf [2, 19] | Plant response rating, Ragweed [3, 20] | Plant response rating, Ragweed [3, 19] | Plant response rating, Crabgrass, Large [5, 20] | Plant response rating, Crabgrass, Large [5, 19] | Plant response rating, Lambsquarters [6, 20] | Plant response rating, Lambsquarters [6, 19] | Plant response rating, Lambsquarters [6, 18] | Plant response rating, Soybean (soybean (Glycine max); [19]) | Plant response rating, Corn (corn (Zea mays); [20]) | Plant response rating, Corn (corn (Zea mays); [19]) | Plant response rating, Johnsongrass [8, 20] | Plant response rating, Johnsongrass [8, 19] | Plant response rating, Johnsongrass [8, 18] | Plant response rating, Surinam Grass [10, 20] | Plant response rating, Surinam Grass [10, 19] | Plant response rating, Cupgrass, Woolly [11, 20] | Plant response rating, Cupgrass, Woolly [11, 19] | Plant response rating, Cupgrass, Woolly [11, 18] | Plant response rating, Chickweed [13, 20] | Plant response rating, Chickweed [13, 19]
80: Plant response rating, Crabgrass, Large [5, 16] | Plant response rating, Windgrass [15, 18]
65: Plant response rating, Blackgrass [4, 20] | Plant response rating, Blackgrass [4, 19]
25: Plant response rating, Oat, Wild (wild oat (Avena fatua); [16])
